Laboratory results: US20220369638A1, “USE OF THE SUCCINATE DEHYDROGENASE INHIBITOR PYDIFLUMETOFEN FOR CONTROLLING CLAVICEPS PURPUREA AND REDUCING SCLEROTIA IN CEREALS” (Bayer Aktiengesellschaft, priority 2019, published 2022)

System: Claviceps purpurea
Assay: Field trials 2018 in Canada: foliar application at early flowering, sclerotia (ergot bodies) counted in harvested wheat grain
Format: in vivo
Conditions: 75 grams/ha Pydiflumetofen, spring wheat (AC Goodeve) or durum wheat (AC Strongfield), crop per trial not stated
Method: Pydiflumetofen as well as market standards were applied according to table 2 between Jul. 6-9, 2018 between BBCH stage 61-63 (early flowering). Assessment of sclerotia was conducted in fall 2018 on harvested grain samples. […] A mixture of Pydiflumetofen and Propiconazole is also available as a suspension concentrate 275 SC formulation (275 grams of total active ingredients) with 150 grams of Pydiflumetofen and 125 grams of Propiconazole per litre under the name […] be tested for reduction of sclerotia in cereals, in particular in spring wheat, winter wheat, durum, hybrid spring wheat, hybrid winter wheat, winter rye, spring rye, hybrid winter rye, hybrid spring rye, and […] plants.

For `CON(C(=O)c1cn(C)nc1C(F)F)C(C)Cc1c(Cl)cc(Cl)cc1Cl` (stereo not drawn) [Pydiflumetofen, 3-(difluoromethyl)-N-methoxy-1-methyl-N-[1-methyl-2-(2,4,6-trichlorophenyl)ethyl]-1H-pyrazole-4-carboxamide], the “Trial No 1 number of Ergot bodies per kg seed” value (applied BBCH 61-63, untreated 0.5) was 0.5 per kg seed, the “Trial No 3 number of Ergot bodies per kg seed” value (applied BBCH 61-63, untreated 1.3) was 0 per kg seed and the “Trial No 2 number of Ergot bodies per kg seed” value (applied BBCH 61-63, untreated 2.3) was 0.3 per kg seed.
